Legend:
[1] = target: T1, Recombinant ROCK1 (amino acids 1-477) (Homo sapiens, UniProt Q13464); assay: ROCK inhibition assay, LANCE Ultra TR-FRET kinase assay (ROCK1); assay type: biochemical; conditions: 1 μM ATP, 50 nM ULight-CREBtide substrate
T1 construct: Recombinant ROCK1 (amino acids 1-477); by word order, ROCK1 from Carna Biosciences
Method: (§1) Kinase IC50 was determined through an in vitro assay based on LANCE Ultra TR-FRET (Time-Resolved Fluorescence Resonance Energy Transfer) homogeneous technologies method (Perkin Elmer). Recombinant ROCK1 (amino acids 1-477) and ROCK2 (amino acids 5-554) proteins were purchased from Carna Biosciences and SignalChem. Compound activities were measured by Envision and IC50s were calculated. The assays were performed in white LUMITRAC™ 200 96 well half-area microplates from Greiner Bio-One. The kinase reaction buffer consisted of 50 mM HEPES pH 7.5, 1 mM EGTA, 10 mM MgCl2, 2 mM DTT and 0.01% Tween-20. Kinases were incubated with 50 nM (ULight-CREBtide) substrate in the presence of 1 (ROCK1) or 4 (ROCK2) μM ATP. The kinase reaction was carried out for 1 hour before addition of a stopping buffer to a final of 10 mM EDTA and 0.6 nM of LANCE Ultra Europium anti-phospho-CREB (Ser133) antibody (PerkinElmer TRF0200) in LANCE detection buffer. All assay incubations were performed at room temperature, and the microplates were sealed with polyester film during that time. The reaction was incubated for 1 hour, and the signal was read in Envision in TR-FRET mode (excitation at 320 nm and emission at 615/665 nm).
(§2) As used herein, a way to describe potency of inhibitory activity (nM) is a value of inhibitory activity at 50% (IC50).

[2] = target: T2, Recombinant ROCK2 (amino acids 5-554) (Homo sapiens, UniProt O75116); assay: ROCK inhibition assay, LANCE Ultra TR-FRET kinase assay (ROCK2); assay type: biochemical; conditions: 4 μM ATP, 50 nM ULight-CREBtide substrate
T2 construct: ROCK2 (amino acids 5-554); by word order, ROCK2 from SignalChem
Method: as §1, §2

T2 sequence (O75116 5-554): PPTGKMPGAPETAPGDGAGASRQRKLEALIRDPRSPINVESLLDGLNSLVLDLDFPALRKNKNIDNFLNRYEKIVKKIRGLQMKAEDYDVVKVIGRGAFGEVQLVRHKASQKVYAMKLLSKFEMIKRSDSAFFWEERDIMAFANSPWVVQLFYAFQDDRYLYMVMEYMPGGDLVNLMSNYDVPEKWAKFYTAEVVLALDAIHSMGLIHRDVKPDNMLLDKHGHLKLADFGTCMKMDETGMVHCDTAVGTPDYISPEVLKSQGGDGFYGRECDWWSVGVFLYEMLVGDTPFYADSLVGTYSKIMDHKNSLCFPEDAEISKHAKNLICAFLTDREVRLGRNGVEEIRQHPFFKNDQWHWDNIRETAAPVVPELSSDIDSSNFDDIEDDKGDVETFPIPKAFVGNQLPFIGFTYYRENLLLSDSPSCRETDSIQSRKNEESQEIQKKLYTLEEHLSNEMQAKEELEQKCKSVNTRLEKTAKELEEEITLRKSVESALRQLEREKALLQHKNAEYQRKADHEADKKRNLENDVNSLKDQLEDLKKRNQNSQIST
T1 sequence (Q13464 1-477): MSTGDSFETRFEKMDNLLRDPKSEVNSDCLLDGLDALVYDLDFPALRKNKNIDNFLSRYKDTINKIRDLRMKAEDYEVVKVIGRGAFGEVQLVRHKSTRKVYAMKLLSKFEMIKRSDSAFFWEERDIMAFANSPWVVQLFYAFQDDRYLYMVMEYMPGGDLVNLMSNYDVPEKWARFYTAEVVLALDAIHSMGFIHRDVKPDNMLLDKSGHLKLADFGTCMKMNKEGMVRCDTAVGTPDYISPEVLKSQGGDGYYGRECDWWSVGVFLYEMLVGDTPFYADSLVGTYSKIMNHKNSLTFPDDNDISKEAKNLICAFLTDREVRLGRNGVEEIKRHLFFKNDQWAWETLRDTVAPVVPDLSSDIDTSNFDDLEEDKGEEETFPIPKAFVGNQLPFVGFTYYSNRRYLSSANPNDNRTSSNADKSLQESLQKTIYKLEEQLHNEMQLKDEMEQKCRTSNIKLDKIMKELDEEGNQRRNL

Compound	IC50 [1] [nM]	IC50 [2] [nM]
O=C(NCC1COC1)c1cccc(Cn2ccc3cc(-c4c[nH]nc4C(F)(F)F)ccc3c2=O)c1 [Compound 53]	11 to 100	< 10
O=C(NCCc1cccc(F)n1)c1cccc(Cn2ccc3cc(-c4c[nH]nc4C(F)(F)F)ccc3c2=O)c1 [Compound 54]	11 to 100	< 10
O=C(NCC1CCOCC1)c1cccc(Cn2ccc3cc(-c4c[nH]nc4C(F)F)ccc3c2=O)c1 [Compound 55]	11 to 100	< 10
O=C(NCC1COC1)c1cccc(Cn2ccc3cc(-c4c[nH]nc4C(F)F)ccc3c2=O)c1 [Compound 58]	11 to 100	< 10
O=C(NCC1COC1)c1cc(F)cc(Cn2ccc3cc(-c4c[nH]nc4C(F)F)ccc3c2=O)c1 [Compound 59]	11 to 100	< 10
O=C(NCC1CCOCC1)c1cc(F)cc(Cn2ccc3cc(-c4c[nH]nc4C(F)F)ccc3c2=O)c1 [Compound 60]	11 to 100	< 10
CN1CCC(CNC(=O)c2cc(F)cc(Cn3ccc4cc(-c5c[nH]nc5C(F)F)ccc4c3=O)c2)CC1 [Compound 62]	< 10	< 10
O=C(NCC1COC1)c1cccc(Cn2ccc3cc(-c4c[nH]nc4Cl)ccc3c2=O)c1 [Compound 63]	11 to 100	< 10
CN1CCC(CNC(=O)c2cccc(Cn3ccc4cc(-c5c[nH]nc5Cl)ccc4c3=O)c2)CC1 [Compound 64]	< 10	< 10
O=C(N[C@H]1CC[C@@H](O)CC1)c1cc(F)cc(Cn2ccc3cc(-c4c[nH]nc4Cl)ccc3c2=O)c1 [Compound 66]	11 to 100	< 10
Cc1nocc1-c1ccc2c(=O)n(Cc3cccc(C(=O)NCC(F)(F)F)c3)ccc2c1 [Compound 67]	11 to 100	10 to 100
Cc1nocc1-c1ccc2c(=O)n(Cc3cccc(C(=O)NCCN4CCOCC4)c3)ccc2c1 [Compound 69]	101 to 500	10 to 100
Cc1nocc1-c1ccc2c(=O)n(Cc3cccc(C(=O)NCC4COC4)c3)ccc2c1 [Compound 71]	11 to 100	< 10
Cc1nocc1-c1ccc2c(=O)n(Cc3cccc(C(=O)N[C@H]4C[C@H](O)C4)c3)ccc2c1 [Compound 73]	101 to 500	10 to 100
Cc1nocc1-c1ccc2c(=O)n(Cc3cccc(C(=O)NCc4ccc(F)nc4)c3)ccc2c1 [Compound 76]	11 to 100	< 10
Cc1nocc1-c1ccc2c(=O)n(Cc3cccc(C(=O)NCC4CCN(C5CC5)CC4)c3)ccc2c1 [Compound 80]	101 to 500	10 to 100
Cc1nocc1-c1ccc2c(=O)n(Cc3cccc(C(=O)NCC4CCN(C(C)C)CC4)c3)ccc2c1 [Compound 81]	101 to 500	10 to 100

Compound	IC50 [1] [nM]	IC50 [2] [nM]
Cc1nocc1-c1ccc2c(=O)n(Cc3cccc(C(=O)NCC4CCN(C5COC5)CC4)c3)ccc2c1 [Compound 84]	101 to 500	10 to 100
Cc1nocc1-c1ccc2c(=O)n(Cc3cccc(C(=O)NC4CCNCC4)c3)ccc2c1 [Compound 85]	11 to 100	< 10
Cc1nocc1-c1ccc2c(=O)n(Cc3cccc(C(=O)Nc4ccn(C)n4)c3)ccc2c1 [Compound 89]	> 501	100 to 500
Cc1nocc1-c1ccc2c(=O)n(Cc3cccc(C(=O)Nc4ccon4)c3)ccc2c1 [Compound 90]	> 501	100 to 500
Cc1nocc1-c1ccc2c(=O)n(Cc3cccc(C(=O)Nc4ccc5c(c4)CCOC5)c3)ccc2c1 [Compound 91]	11 to 100	< 10
Cc1nocc1-c1ccc2c(=O)n(Cc3cccc(C(=O)Nc4nc5c(s4)CCNC5)c3)ccc2c1 [Compound 93]	< 10	< 10
Cc1nocc1-c1ccc2c(=O)n(Cc3cccc(C(=O)Nc4nc5c(s4)CCN(C)C5)c3)ccc2c1 [Compound 94]	< 10	< 10
Cc1nocc1-c1ccc2c(=O)n(Cc3cccc(C(=O)Nc4nc5c(s4)CCN(C(C)C)C5)c3)ccc2c1 [Compound 95]	11 to 100	< 10
Cc1nocc1-c1ccc2c(=O)n(Cc3cccc(C(=O)Nc4ccc5c(c4)CCNC5)c3)ccc2c1 [Compound 96]	< 10	< 10
Cc1nocc1-c1ccc2c(=O)n(Cc3cccc(C(=O)Nc4ccc5c(c4)CCN(C)C5)c3)ccc2c1 [Compound 97]	< 10	< 10
Cc1nocc1-c1ccc2c(=O)n(Cc3cccc(C(=O)Nc4ccc5c(c4)CCN(C(C)C)C5)c3)ccc2c1 [Compound 98]	< 10	< 10
Cc1nocc1-c1ccc2c(=O)n(Cc3cccc(C(=O)Nc4ccc5c(c4)CCN(C4CC4)C5)c3)ccc2c1 [Compound 99]	< 10	< 10
Cc1nocc1-c1ccc2c(=O)n(Cc3cccc(C(=O)NCCO)c3)ccc2c1 [Compound 102]	> 501	10 to 100
Cn1nccc1-c1ccc2c(=O)n(Cc3cccc(C(=O)NC4CCNCC4)c3)ccc2c1 [Compound 105]	< 10	< 10
Cn1nccc1-c1ccc2c(=O)n(Cc3cccc(C(=O)NC4COC4)c3)ccc2c1 [Compound 110]	101 to 500	< 10
CN1CC(CNC(=O)c2cccc(Cn3ccc4cc(-c5ccnn5C)ccc4c3=O)c2)C1 [Compound 113]	11 to 100	< 10

Other lines, results leading:

IC50 [1] [nM]	IC50 [2] [nM]	Compound
< 10	< 10	CN1CCC(CNC(=O)c2cccc(Cn3ccc4cc(-c5c[nH]nc5C(F)F)ccc4c3=O)c2)CC1 [Compound 56]
< 10	< 10	O=C(NCC1CCNCC1)c1cccc(Cn2ccc3cc(-c4c[nH]nc4C(F)F)ccc3c2=O)c1 [Compound 57]
< 10	< 10	O=C(NCC1CCNCC1)c1cc(F)cc(Cn2ccc3cc(-c4c[nH]nc4C(F)F)ccc3c2=O)c1 [Compound 61]
101 to 500	10 to 100	O=C(NCCO)c1cc(F)cc(Cn2ccc3cc(-c4c[nH]nc4Cl)ccc3c2=O)c1 [Compound 65]
11 to 100	10 to 100	Cc1nocc1-c1ccc2c(=O)n(Cc3cccc(C(=O)NCC4CC4)c3)ccc2c1 [Compound 68]
< 10	< 10	Cc1nocc1-c1ccc2c(=O)n(Cc3cccc(C(=O)NCCN4CCN(C)CC4)c3)ccc2c1 [Compound 70]
101 to 500	10 to 100	Cc1nocc1-c1ccc2c(=O)n(Cc3cccc(C(=O)N[C@H]4C[C@@H](O)C4)c3)ccc2c1 [Compound 72]
101 to 500	10 to 100	Cc1nocc1-c1ccc2c(=O)n(Cc3cccc(C(=O)N[C@H]4CC[C@@H](O)CC4)c3)ccc2c1 [Compound 74]
11 to 100	< 10	Cc1nocc1-c1ccc2c(=O)n(Cc3cccc(C(=O)NCC4CCN(C)CC4)c3)ccc2c1 [Compound 78]
11 to 100	< 10	Cc1nocc1-c1ccc2c(=O)n(Cc3cccc(C(=O)NCC4CCNCC4)c3)ccc2c1 [Compound 79]
101 to 500	10 to 100	Cc1nocc1-c1ccc2c(=O)n(Cc3cccc(C(=O)NCC4CCN(CC(F)(F)F)CC4)c3)ccc2c1 [Compound 83]
11 to 100	< 10	Cc1nocc1-c1ccc2c(=O)n(Cc3cccc(C(=O)NC4CCN(CC(F)(F)F)CC4)c3)ccc2c1 [Compound 87]
101 to 500	10 to 100	Cc1nocc1-c1ccc2c(=O)n(Cc3cccc(C(=O)NC4CCN(C5COC5)CC4)c3)ccc2c1 [Compound 88]
11 to 100	< 10	Cc1nocc1-c1ccc2c(=O)n(Cc3cccc(C(=O)Nc4ccc5c(c4)COCC5)c3)ccc2c1 [Compound 92]
< 10	< 10	Cc1nocc1-c1ccc2c(=O)n(Cc3cccc(C(=O)Nc4ccc5c(c4)CNCC5)c3)ccc2c1 [Compound 100]
< 10	< 10	Cc1nocc1-c1ccc2c(=O)n(Cc3cccc(C(=O)Nc4ccc5c(c4)CN(C)CC5)c3)ccc2c1 [Compound 101]
101 to 500	10 to 100	Cn1nccc1-c1ccc2c(=O)n(Cc3cccc(C(=O)NCC(F)(F)F)c3)ccc2c1 [Compound 103]
101 to 500	10 to 100	Cn1nccc1-c1ccc2c(=O)n(Cc3cccc(C(=O)NC4CCOCC4)c3)ccc2c1 [Compound 104]
< 10	< 10	CN1CCC(NC(=O)c2cccc(Cn3ccc4cc(-c5ccnn5C)ccc4c3=O)c2)CC1 [Compound 106]
101 to 500	10 to 100	Cn1nccc1-c1ccc2c(=O)n(Cc3cccc(C(=O)NC4CCN(C5COC5)CC4)c3)ccc2c1 [Compound 109]
101 to 500	< 10	Cn1nccc1-c1ccc2c(=O)n(Cc3cccc(C(=O)NCC4COC4)c3)ccc2c1 [Compound 111]
101 to 500	10 to 100	Cn1nccc1-c1ccc2c(=O)n(Cc3cccc(C(=O)NCC4CC(O)C4)c3)ccc2c1 (centres unmarked) [Compound 112]
